Experiment [1] relates to VanA VRE (E. faecalis BM 4166 and E. faecium ATCC BAA-2317). As to the kind of experiment: Cell wall biosynthesis inhibition assay (accumulation of UDPMurNAc-pp 19). Conditions: 35 μg/mL, tetracycline pretreated VanA VRE, 30 minutes, 37° C. It is filed as cell-based, Enterococcus faecalis; Enterococcus faecium. The text has this: The inhibition of bacterial cell wall synthesis was established in an assay that quantitates the accumulation of the peptidoglycan precursor UDP-N-acetyl-muramyl-depsipentapeptide (Compound 19, UDPMurNAc-pp), resulting from inhibited cell wall incorporation following antibiotic treatment. […] This procedure was reduced in scale and modified to enlist reverse-phase HPLC separation, UV detection, and calibration curve determination of the amount of isolated 19, permitting use with limited sample sizes. A larger scale isolation and full characterization of 19 provided the material needed to establish a linear calibration curve.
The bacterial suspension was heated at 100° C. for 15 minutes to release cytosolic 19. The entire supernatant was analyzed by semi-preparative reverse-phase HPLC with a single injection and the amount of 19 was quantitated with use of the calibration curve.
Cultures of vancomycin-resistant Enterococcus faecalis (VanA VRE, BM4166) and Enterococcus faecium (VanA VRE, ATCC BAA-2317) were inoculated and grown in an orbital shaker at 37° C. in 100% brain-heart infusion broth for 12 hours. The above bacterial solution was subjected to a subculture to obtain fresh mid-log phase bacterial cells (total volume of bacterial suspension=5 mL, incubation time=6 hours, OD600=0.6). […] Vancomycin analogues were added and the mixture was incubated at 37° C. for a further 30 minutes.
After the bacteria were harvested (3000 rpm, 4° C., 20 minutes), this bacterial precipitate was washed and resuspended in 5 mM glucose and 5 mM HEPES buffer (500 μL, 1:1, pH=7.2). This bacterial suspension was heated at 100° C. for 15 minutes and centrifuged (13000 rpm, 25° C., 10 minutes). […] [*****Allen et al., Antimicrob. Agents Chemother. 1996, 40(10):2356-2362]; Liu et al., J. Am. Chem. Soc. 2001, 123:9916-9917.] The amount of UDP Mur N-Ac pentapeptide (19) was quantified by use of calibration curves for E. faecalis BM4166, and for E. faecium ATCC BAA-2317 based on the area under the curve (AUC).

Experiment [2] has the same test system. As to the kind of experiment: Cell wall permeability assay (propidium iodide uptake). It is filed as cell-based, Enterococcus faecalis; Enterococcus faecium. Conditions: 10 μM compound.
Experiment [3] has as its system vancomycin-sensitive Staphylococcus aureus (VSSA strain ATCC 25923). The following applies: previously reported data; cited from earlier work.
Experiment [4] has as its system methicillin and oxacillin-resistant Staphylococcus aureus subsp. aureus (MRSA strain ATCC 43300). Conditions: previously reported data; cited from earlier work.
Experiment [5] deals with vancomycin-resistant Enterococcus faecalis (VanA VRE, BM4166). Conditions: BM 4166; previously reported data; cited from earlier work.
The subject of experiment [6] is Enterococcus faecium (VanA VRE, ATCC BAA-2317). Conditions: previously reported data; cited from earlier work.
The test system of experiment [7] is vancomycin-resistant Enterococcus faecalis (VanB VRE, strain ATCC 51299). Conditions: previously reported data; cited from earlier work.
The subject of experiment [8] is VSSA, MRSA, VanA and VanB VRE. Conditions: cited from earlier work.

For the compound `CN[C@H](CC(C)C)C(=O)N[C@H]1C(=O)N[C@@H](CC(N)=O)C(=O)N[C@H]2C(=S)N[C@@H]3C(=O)N[C@H](C(=O)N[C@H](C(=O)O)c4cc(O)cc(O)c4-c4cc3ccc4O)[C@H](O)c3ccc(c(Cl)c3)Oc3cc2cc(c3OC2OC(CO)C(O)[C@H](O)[C@@H]2O[C@H]2CC(C)(NCc3ccc(-c4ccc(Cl)cc4)cc3)[C@H](O)[C@H](C)O2)Oc2ccc(cc2Cl)[C@H]1O` (some centres unmarked) [Compound 6], the “inhibition of bacterial cell wall synthesis (accumulation of 19)” value in experiment [1] is “inhibit cell wall biosynthesis to a similar extent”. For the same compound, the “induced cell membrane permeability (propidium uptake)” value in experiment [2] was “Neither compound significantly impacts membrane permeability”. For the same compound, the “Antimicrobial Activity, MIC, sensitive S. aureus” value in experiment [3] was 2 µg/mL. Moreover, the “Antimicrobial Activity, MIC, MRSA S. aureus” value in experiment [4] was 2 µg/mL. Besides, in experiment [5], the “Antimicrobial Activity, MIC, VanA E. faecalis” value was 4 µg/mL. The “Antimicrobial Activity, MIC, VanA E. faecium” value in experiment [6] was 4 µg/mL. Moreover, the “Antimicrobial Activity, MIC, VanB E. faecalis” value in experiment [7] is 2 µg/mL. The “MICs (range over panel)” value in experiment [8] is 2 to 4 µg/mL.
